For assay [1], the system named is Rattus norvegicus. Briefly: Maximal increase in rotations at a dose of 0.1 ug/kg, ip in 6-hydroxydopamine-lesioned rat model of hemi-parkinsonism. Type of assay: functional.
Assay [2] is described as follows: Ratio of RH to RL was determined in the presence of GPP(NH)p pretreated with the compound at 100 nM.
In assay [3] the target is D(2) dopamine receptor (Bos taurus) (UniProt P20288). Briefly: Inhibitor constant(Ki) for Dopamine receptor D2 calculated for high affinity(KH) component of [3H]spiperidol binding in the presence of GPP(NH)p pretreated with the compound at 100 nM.
Assay [4] has the same target. Briefly: Inhibitor constant(Ki) for Dopamine receptor D2 calculated for […] component of [3H]-spiperidol binding in the absence of GPP(NH)p pretreated with the compound at 100 nM.
Assay [5] has the same target. Briefly: Percentage of Dopamine receptor D2 in the low affinity form(RL) for the agonist was determined in the presence of GPP(NH)p pretreated with the compound at 100 nM. Format: functional.
Assay [6] can be described thus: Ratio of RH to RL was determined in the absence of GPP(NH)p pretreated with the compound at 100 nM.
Assay [7] deals with D(2) dopamine receptor (Bos taurus) (UniProt P20288). Briefly: Percentage of Dopamine receptor D2 in the low affinity form(RL) for the agonist was determined in the absence of GPP(NH)p pretreated with the compound at 100 nM. Format: functional.
Assay [8] shares this target. Briefly: Inhibitor constant(Ki) for Dopamine receptor D2 calculated for high affinity(KH) component of [3H]spiperidol binding in the absence of GPP(NH)p pretreated with the compound at 100 nM.
Assay [9] shares this target. Briefly: Percentage of Dopamine receptor D2 in the high affinity form(RH) for the agonist was determined in the presence of GPP(NH)p pretreated with the compound at 100 nM. Type of assay: functional.
The test system of assay [10] is Rattus norvegicus. Briefly: Maximal increase in rotations at a dose of 1 mg/kg, ip in 6-hydroxydopamine-lesioned rat model of hemi-parkinsonism. Type of assay: functional. Conditions: route intraperitoneal.
The subject of assay [11] is Rattus norvegicus. Briefly: Maximal increase in rotations at a dose of 1 ug/kg, ip in 6-hydroxydopamine-lesioned rat model of hemi-parkinsonism. Type of assay: functional.
Assay [12] has as its system Rattus norvegicus. Briefly: Maximal increase in rotations at a dose of 10 ug/kg, ip in 6-hydroxydopamine-lesioned rat model of hemi-parkinsonism. Type of assay: functional.
In assay [13] the target is D(2) dopamine receptor (Bos taurus) (UniProt P20288). Briefly: Percentage of Dopamine receptor D2 in the high affinity form(RH) for the agonist was determined in the absence of GPP(NH)p pretreated with the compound at 100 nM. Format: functional.
For assay [14] the target is unchanged. Briefly: Inhibitor constant(Ki) for Dopamine receptor D2 calculated for low affinity(KL) component of [3H]spiperidol binding in the presence of GPP(NH)p pretreated with the compound at 100 nM.
The target is the same in assay [15]. Briefly: Inhibitor constant(Ki) for Dopamine receptor D2 calculated for low affinity(KL) component of [3H]spiperidol binding in the absence of GPP(NH)p pretreated with the compound at 100 nM.

Consider six molecules from ChEMBL document CHEMBL1131839, “Synthesis and dopamine receptor modulating activity of unsubstituted and substituted triproline analogues of L-prolyl-L-leucyl-glycinamide (PLG)” (1999).

“And” between values parts separate entries of the source, which are not always exact repeats. Equal entries are not always repeated.

Sequence of D(2) dopamine receptor (Bos taurus) (P20288 whole entry): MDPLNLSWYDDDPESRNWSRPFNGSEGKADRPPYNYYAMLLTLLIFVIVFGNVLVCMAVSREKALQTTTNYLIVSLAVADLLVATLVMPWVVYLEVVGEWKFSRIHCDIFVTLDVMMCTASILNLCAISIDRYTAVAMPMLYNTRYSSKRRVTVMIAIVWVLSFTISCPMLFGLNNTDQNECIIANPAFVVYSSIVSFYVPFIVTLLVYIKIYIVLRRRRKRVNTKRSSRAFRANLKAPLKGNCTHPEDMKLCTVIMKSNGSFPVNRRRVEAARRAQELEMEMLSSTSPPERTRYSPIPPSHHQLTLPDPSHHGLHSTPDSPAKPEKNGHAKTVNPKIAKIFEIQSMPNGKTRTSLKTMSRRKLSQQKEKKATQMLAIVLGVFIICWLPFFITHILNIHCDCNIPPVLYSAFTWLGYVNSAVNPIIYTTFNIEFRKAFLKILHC

Molecule `CC(C)C[C@H](NC(=O)[C@@H]1CCCN1)C(=O)N1CCCC1C(N)=O` (single isomer, unassigned) yielded an Increase in [1] of 30%.
For the molecule `C[C@@H]1CCN(C(=O)[C@@H]2CCCN2)[C@@H]1C(=O)N1CCC[C@H]1C(N)=O`, the Ratio in [2] is 1.17; in [6], 1.08. Also, the KH in assay [3] was 0.087 nM; in [8], 0.052 nM and 52%. The figures for the KL in [3] and in assay [4] were 106 nM and 98 nM, respectively. In addition, the RL is 46% in assay [5] and 48% in assay [7]. Moreover, in [9], the RH was found to be 54%.
Consider `CC(C)CC(NC(=O)[C@@H]1CCCN1)C(=O)NCC(N)=O` (single isomer, unassigned), for which the Increase in assay [10] is on record as 30%.
In assay [11], `CC(C)C[C@H](NC(=O)[C@@H]1CCCN1)C(=O)N1CCC[C@@H]1C(N)=O` returned an Increase of 26%.
As to `NC(=O)[C@@H]1CCCN1C(=O)[C@@H]1CCCN1C(=O)[C@@H]1CCCN1`, the Ratio in [2] turned out to be 1.17; in assay [6], 2.7. In addition, the Increase in [12] turned out to be 47%. For the same molecule, the RH in assay [13] stood at 73%; in [9] it was 54%. Further, the figures for the KH in assay [3] and in [8] were 0.089 nM and 0.05 nM, respectively. In addition, the RL was 46% in assay [5] and 27% in assay [7]. Besides, the KL in assay [14] was 88 nM; in [15] it was 110 nM.
For the molecule `NC(=O)[C@H]1CCCN1C(=O)[C@@H]1CCCN1C(=O)[C@@H]1CCCN1`, the values for the Ratio in assay [2] and in [6] were 2.03 and 2.45, respectively. Besides, the RH came out at 71% in assay [13] and 67% in [9]. The KH in [3] is 0.054 nM; in assay [8], 0.086 nM. For the same molecule, the figures for the RL in assay [5] and in assay [7] were 33% and 29%, respectively. The KL is 140 nM in assay [14] and 153 nM in [15].
